Source: ChEMBL document CHEMBL4673259, “Discovery of isoquinolinone and naphthyridinone-based inhibitors of poly(ADP-ribose) polymerase-1 (PARP1) as anticancer agents: Structure activity relationship and preclinical characterization” (Bioorg Med Chem, 2020)
pIC50: −log10 of the molar value.

Experiments:
[1] = molecular target: T1, Poly [ADP-ribose] polymerase 1 (Homo sapiens, UniProt P09874); test: Inhibition of N-terminal GST-tagged human full length PARP1 (2 to 1041 residues) expressed in baculovirus infected Sf9 cells using histone mixture (H2A and H2B) and biotinylated NAD+ as substrate in presence of activated DNA incubated for 60 mins by chemiluminescence assay
T1 sequence (P09874 whole entry, the tested form may be a part): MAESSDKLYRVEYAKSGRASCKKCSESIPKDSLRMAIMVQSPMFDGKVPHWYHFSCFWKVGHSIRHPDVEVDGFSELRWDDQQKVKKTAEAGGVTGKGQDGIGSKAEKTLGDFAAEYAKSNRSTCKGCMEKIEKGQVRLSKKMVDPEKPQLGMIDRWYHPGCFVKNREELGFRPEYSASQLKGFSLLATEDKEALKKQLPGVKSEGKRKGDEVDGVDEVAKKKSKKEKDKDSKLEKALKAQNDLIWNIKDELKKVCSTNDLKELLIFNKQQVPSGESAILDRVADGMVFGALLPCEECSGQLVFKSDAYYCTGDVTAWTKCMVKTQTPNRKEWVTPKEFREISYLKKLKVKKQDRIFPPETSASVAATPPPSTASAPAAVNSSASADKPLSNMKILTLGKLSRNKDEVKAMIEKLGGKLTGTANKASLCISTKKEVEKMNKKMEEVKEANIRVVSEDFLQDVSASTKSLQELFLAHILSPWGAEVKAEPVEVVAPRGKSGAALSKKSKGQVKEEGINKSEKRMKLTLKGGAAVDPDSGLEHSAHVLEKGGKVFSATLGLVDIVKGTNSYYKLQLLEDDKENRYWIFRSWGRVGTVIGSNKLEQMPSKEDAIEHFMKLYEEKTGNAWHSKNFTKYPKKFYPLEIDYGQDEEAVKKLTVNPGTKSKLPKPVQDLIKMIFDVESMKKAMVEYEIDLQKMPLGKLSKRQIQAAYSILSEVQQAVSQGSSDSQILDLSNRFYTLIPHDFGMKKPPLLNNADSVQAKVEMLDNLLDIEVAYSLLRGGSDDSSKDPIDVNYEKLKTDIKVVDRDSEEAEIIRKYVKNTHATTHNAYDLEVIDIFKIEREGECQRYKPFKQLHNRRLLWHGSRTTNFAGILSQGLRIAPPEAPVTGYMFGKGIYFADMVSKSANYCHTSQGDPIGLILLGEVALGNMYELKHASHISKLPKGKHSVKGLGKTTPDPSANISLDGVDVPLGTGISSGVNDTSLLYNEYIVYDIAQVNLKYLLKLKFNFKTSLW

[2] = molecular target: Poly [ADP-ribose] polymerase 2 (Homo sapiens, UniProt Q9UGN5); test: Inhibition of N-terminal GST-tagged human PARP2 (2 to 583 residues) expressed in baculovirus infected Sf9 cells using histone mixture (H2A and H2B) and biotinylated NAD+ as substrate in presence of activated DNA incubated for 60 mins by chemiluminescence assay
Poly [ADP-ribose] polymerase 2, sequence (Q9UGN5 whole entry, the tested form may be a part): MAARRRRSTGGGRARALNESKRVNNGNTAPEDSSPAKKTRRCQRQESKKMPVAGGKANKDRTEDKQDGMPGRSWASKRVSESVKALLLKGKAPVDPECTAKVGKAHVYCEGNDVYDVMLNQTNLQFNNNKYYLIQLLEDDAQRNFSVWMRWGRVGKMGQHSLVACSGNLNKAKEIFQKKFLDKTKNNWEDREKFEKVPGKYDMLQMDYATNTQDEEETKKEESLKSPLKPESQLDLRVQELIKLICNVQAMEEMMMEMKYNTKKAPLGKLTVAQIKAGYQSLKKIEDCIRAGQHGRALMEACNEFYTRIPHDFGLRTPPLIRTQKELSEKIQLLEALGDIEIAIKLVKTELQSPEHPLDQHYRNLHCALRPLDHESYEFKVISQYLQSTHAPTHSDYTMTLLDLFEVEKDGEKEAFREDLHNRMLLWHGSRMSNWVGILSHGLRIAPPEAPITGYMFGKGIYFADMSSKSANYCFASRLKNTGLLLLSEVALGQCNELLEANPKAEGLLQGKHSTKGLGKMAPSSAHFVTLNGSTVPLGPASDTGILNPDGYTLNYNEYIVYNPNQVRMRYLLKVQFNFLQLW

[3] = molecular target: T1, Poly [ADP-ribose] polymerase 1; test: Inhibition of PARP1 in human MDA-MB-436 cells assessed as inhibition of PARylation at 10 nM incubated for 1 hr by chemiluminescence assay; format: cell-based
MDA-MB-436 [4] = test: Cytotoxicity against human MDA-MB-436 cells assessed as inhibition of cell viability incubated for 4 days by CellTiterGlo luminescence assay; details: MDA-MB-436, 96 h
MDA-MB-436 [5] = test: Cytotoxicity against human MDA-MB-436 cells assessed as inhibition of cell viability incubated for 14 days with three intermittent intervals by CellTiterGlo luminescence assay; details: MDA-MB-436, 336 h
[6] = Tmax in BALB/c mouse at 1 mg/kg, iv measured up to 24 hrs by LC-MS/MS analysis; format: ADME, organism-based; details: in vivo
[7] = Tmax in BALB/c mouse at 10 mg/kg, po measured up to 24 hrs by LC-MS/MS analysis; format: ADME, organism-based; details: in vivo
[8] = Cmax in BALB/c mouse at 1 mg/kg, iv measured up to 24 hrs by LC-MS/MS analysis; format: ADME, organism-based; set-up: route intravenous, dose 1 mg/kg, time <=24; details: in vivo
[9] = Cmax in BALB/c mouse at 10 mg/kg, po measured up to 24 hrs by LC-MS/MS analysis; format: ADME, organism-based; set-up: route oral, dose 10 mg/kg, time <=24; details: in vivo
[10] = AUClast in BALB/c mouse at 1 mg/kg, iv measured up to 24 hrs by LC-MS/MS analysis; format: ADME, organism-based; set-up: route intravenous, dose 1 mg/kg, time <=24; details: in vivo
[11] = AUClast in BALB/c mouse at 10 mg/kg, po measured up to 24 hrs by LC-MS/MS analysis; format: ADME, organism-based; set-up: route oral, dose 10 mg/kg, time <=24; details: in vivo
[12] = Half life in BALB/c mouse at 1 mg/kg, iv measured up to 24 hrs by LC-MS/MS analysis; format: ADME, organism-based; details: in vivo
[13] = Clearance in BALB/c mouse at 1 mg/kg, iv measured up to 24 hrs by LC-MS/MS analysis; format: ADME, organism-based; details: in vivo
[14] = Volume of distribution at steady state in BALB/c mouse at 1 mg/kg, iv measured up to 24 hrs by LC-MS/MS analysis; format: ADME, organism-based; details: in vivo, read-out: Vdss
[15] = Oral bioavailability in BALB/c mouse at 10 mg/kg measured up to 24 hrs by LC-MS/MS analysis; format: ADME, organism-based; details: in vivo
MCF7 = test: Cytotoxicity against human MCF7 cells harboring wild type BRCA at 1000 nM relative to control; format: cell-based; details: mcf7, 1 µM
HEK293 [16] = test: Cytotoxicity against HEK293 cells assessed as inhibition of cell viability; format: cell-based; details: human
MDA-MB-436 [17] = test: Anticancer activity against human MDA-MB-436 cells harboring BRCA mutant xenografted in SCID/nude mouse assessed as tumor growth regression at 1.5 mg/kg, po bid and measured up to 5 weeks post-drug administration; format: functional; details: MDA-MB-436, po, 840 h, time weeks <=5
MDA-MB-436 [18] = test: Anticancer activity against human MDA-MB-436 cells harboring BRCA mutant xenografted in SCID/nude mouse assessed as tumor growth regression at 50 mg/kg, po bid and measured up to 5 weeks post-drug administration; format: functional; details: MDA-MB-436, po, 840 h, time weeks <=5
[19] = Toxicity in SCID/nude mouse xenografted with human MDA-MB-436 cells harboring BRCA mutant assessed as body weight loss at 50 mg/kg, po bid; format: organism-based; details: in vivo
MDA-MB-436 [20] = test: Potentiation of anticancer activity against human MDA-MB-436 cells harboring BRCA mutant xenografted in SCID/nude mouse assessed as tumor growth inhibition at 3 mg/kg, po bid for 12 days co-administered with TMZ measured up to 9 weeks post-drug administration; format: functional; details: MDA-MB-436, po, 288 h, time 12 day
CAPAN-1 = test: Potentiation of anticancer activity against human CAPAN-1 cells harboring BRCA mutant xenografted in SCID/nude mouse assessed as tumor growth inhibition at 3 mg/kg, po bid for 12 days co-administered with TMZ measured up to 9 weeks post-drug administration; format: functional; details: CAPAN-1, po, 288 h, time 12 day
SK-ES1 = test: Potentiation of anticancer activity against human SK-ES-1 cells harboring EWSF1 translocation xenografted in SCID/nude mouse assessed as tumor growth inhibition at 3 mg/kg, po bid for 12 days co-administered with TMZ measured up to 9 weeks post drug administration; format: functional; details: 288 h, time 12 day
HEK293 [21] = test: Cytotoxicity against HEK293 cells at 1000 nM relative to control; format: cell-based; details: human, hek293, 1 µM
MDA-MB-436 [22] = test: Anticancer activity against human MDA-MB-436 cells harboring BRCA mutant xenografted in SCID/nude mouse assessed as tumor growth regression at 0.15 mg/kg, po bid and measured up to 5 weeks post-drug administration; format: functional; details: MDA-MB-436, po, 840 h, time weeks <=5
[23] = Toxicity in SCID/nude mouse xenografted with human MDA-MB-436 cells harboring BRCA mutant assessed as body weight loss at 0.15 mg/kg, po bid; format: organism-based; details: in vivo
[24] = Toxicity against SCID/nude mouse xenografted with human MDA-MB-436 cells harboring BRCA mutant assessed as body weight loss at 0.15 mg/kg, po bid for 12 days co-administered with 35 mg/kg, po TMZ; format: organism-based; details: in vivo, 288 h, time 12 day
[25] = Toxicity against SCID/nude mouse xenografted with human CAPAN-1 cells harboring BRCA mutant assessed as body weight loss at 0.15 mg/kg, po bid for 12 days co-administered with 35 mg/kg, po TMZ; format: organism-based; details: in vivo, 288 h, time 12 day
[26] = Toxicity against SCID/nude mouse xenografted with human SK-ES-1 cells harboring EWSF1 translocation assessed as body weight loss at 0.15 mg/kg, po bid for 12 days co-administered with 35 mg/kg, po TMZ; format: organism-based; details: in vivo, 288 h, time 12 day
[27] = Toxicity against SCID/nude mouse xenografted with human MDA-MB-436 cells harboring BRCA mutant assessed as hypothermia at 0.15 mg/kg, po bid for 12 days co-administered with 35 mg/kg, po TMZ; format: organism-based; details: in vivo, 288 h, time 12 day
[28] = Toxicity against SCID/nude mouse xenografted with human CAPAN-1 cells harboring BRCA mutant assessed as hypothermia at 0.15 mg/kg, po bid for 12 days co-administered with 35 mg/kg, po TMZ; format: organism-based; details: in vivo, 288 h, time 12 day
[29] = Toxicity against SCID/nude mouse xenografted with human SK-ES-1 cells harboring EWSF1 translocation assessed as hypothermia at 0.15 mg/kg, po bid for 12 days co-administered with 35 mg/kg, po TMZ; format: organism-based; details: in vivo, 288 h, time 12 day
[30] = Toxicity against SCID/nude mouse xenografted with human MDA-MB-436 cells harboring BRCA mutant assessed as body weight loss at 0.15 mg/kg, po bid for 12 days co-administered with lower dose of TMZ; format: organism-based; details: in vivo, 288 h, time 12 day
[31] = Toxicity against SCID/nude mouse xenografted with human CAPAN-1 cells harboring BRCA mutant assessed as body weight loss at 0.15 mg/kg, po bid for 12 days co-administered with lower dose of TMZ; format: organism-based; details: in vivo, 288 h, time 12 day
[32] = Toxicity against SCID/nude mouse xenografted with human SK-ES-1 cells harboring EWSF1 translocation assessed as body weight loss at 0.15 mg/kg, po bid for 12 days co-administered with lower dose of TMZ; format: organism-based; details: in vivo, 288 h, time 12 day

Row | Structure (SMILES) | pIC50 [1] | pIC50 [2] | inhibition [3] | pIC50 (MDA-MB-436 [4]) | pIC50 (MDA-MB-436 [5]) | other results
1 | N#Cc1ccc(N2CCN(CCCc3cc4c(N)cccc4c(=O)[nH]3)CC2)cc1 | 9.22 | 8.14 | 93% | 10.70 | 12.00 | 
2 | N#Cc1ccc(N2CCN([C@H]3C=C(c4cc5ncc(F)cc5c(=O)[nH]4)CC3)CC2)cc1 | 9.05 | 7.57 | 91% | 9.77 | 11.15 | 
3 | N#Cc1ccc(N2CCN([C@@H]3C=C(c4cc5c(N)cc(F)cc5c(=O)[nH]4)CC3)CC2)c(F)c1 | 8.25 | 7.24 |  |  |  | 
4 | N#Cc1ccc(N2CCN([C@@H]3C=C(c4cc5c(N)cc(F)cc5c(=O)[nH]4)CC3)CC2)cc1 | 8.30 | 6.70 | 40% |  |  | 
5 | NC(=O)c1ccc(N2CCN(CCCc3cc4c(N)cc(F)cc4c(=O)[nH]3)CC2)cc1 | 9.40 | 8.34 | 54% | 8.83 | 9.48 | 
6 | N#Cc1ccc(N2CCN(CCCc3cc4c(N)cc(F)cc4c(=O)[nH]3)CC2)cc1 | 9.22 | 8.41 | 86% | 10.82 | 12.22 | Tmax [6]: 4.8 min; Tmax [7]: 15 min; Cmax [8]: 3.7 µM; Cmax [9]: 1.5 µM; AUC(0-t) at 24 h [10]: 2.4 µM·h; AUC(0-t) at 24 h [11]: 1.9 µM·h; half-life [12]: 66 min; clearance [13]: 17 mL/min/kg; Vd [14]: 0.8 L/kg; bioavailability [15]: 8%; Activity (MCF7): 23%; Activity (HEK293 [16]): Non-Toxic; inhibition in vivo at 1.5 mg/kg (MDA-MB-436 [17]): 29%
7 | O=C(c1cc(Cc2n[nH]c(=O)c3ccccc23)ccc1F)N1CCN(C(=O)C2CC2)CC1 [OLAPARIB] |  |  |  |  |  | inhibition in vivo at 50 mg/kg (MDA-MB-436 [18]): 40%; Activity [19]: 10%; inhibition in vivo at 3 mg/kg (MDA-MB-436 [20]): 39%; inhibition in vivo at 3 mg/kg (CAPAN-1): 49%; inhibition in vivo at 3 mg/kg (SK-ES1): 39.5%
8 | Cn1ncnc1[C@H]1c2n[nH]c(=O)c3cc(F)cc(c23)N[C@@H]1c1ccc(F)cc1 [TALAZOPARIB] |  |  | 91% |  |  | Activity (MCF7): 98%; Activity (HEK293 [21]): 95%; inhibition in vivo at 0.15 mg/kg (MDA-MB-436 [22]): 65%; Activity [23]: 10%; Activity [24]: Toxic; Activity [25]: Toxic; Activity [26]: Toxic; Activity [27]: Toxic; Activity [28]: Toxic; Activity [29]: Toxic; Activity [30]: Non-Toxic; Activity [31]: Non-Toxic; Activity [32]: Non-Toxic
9 | N#Cc1ccc(N2CCN([C@H]3C=C(c4cc5c(N)cc(F)cc5c(=O)[nH]4)CC3)CC2)cc1 | 9.00 | 8.89 | 92% | 10.14 | 11.80 | Tmax [6]: 4.8 min; Tmax [7]: 15 min; Cmax [8]: 11 µM; Cmax [9]: 19 µM; AUC(0-t) at 24 h [10]: 18 µM·h; AUC(0-t) at 24 h [11]: 106 µM·h; half-life [12]: 132 min; clearance [13]: 2.2 mL/min/kg; Vd [14]: 0.4 L/kg; bioavailability [15]: 59%; Activity (MCF7): 36%; Activity (HEK293 [21]): 65%; inhibition in vivo at 1.5 mg/kg (MDA-MB-436 [17]): 94%
10 | N#Cc1ccc(N2CCN([C@H]3C=C(c4cc5c(N)cc(F)cc5c(=O)[nH]4)CC3)CC2)c(F)c1 | 9.05 | 8.59 | 89% | 10.22 | 10.30 | 
11 | CNCc1ccc(-c2[nH]c3cc(F)cc4c3c2CCNC4=O)cc1 [RUCAPARIB] |  |  |  |  |  | inhibition in vivo at 3 mg/kg (MDA-MB-436 [20]): 95%; inhibition in vivo at 3 mg/kg (CAPAN-1): 46%; inhibition in vivo at 3 mg/kg (SK-ES1): 20.6%
12 | N#Cc1ccc(N2CCN([C@H]3C=C(c4cc5c(N)cccc5c(=O)[nH]4)CC3)CC2)cc1 | 9.22 | 8.82 | 92% | 9.96 | 11.30 | 
13 | N#Cc1ccc(N2CCN([C@H]3C=C(c4cc5ncccc5c(=O)[nH]4)CC3)CC2)nc1 | 9.00 | 7.78 | 92% | 8.96 | 10.30 | 
14 | N#Cc1ccc(N2CCN([C@@H]3C=C(c4cc5c(N)cccc5c(=O)[nH]4)CC3)CC2)cc1 | 8.60 | 6.78 | 83% |  |  | 
15 | Nc1cc(F)cc2c(=O)[nH]c(CCCN3CCN(c4ccc(F)cc4)CC3)cc12 | 9.05 | 8.02 | 68% | 8.95 | 10.30 | 
16 | CNC(=O)c1ccc(N2CCN(CCCc3cc4c(N)cc(F)cc4c(=O)[nH]3)CC2)cc1 | 9.10 | 7.97 | 62% | 9.46 | 11.00 | 
